Test results: patent US20170234889A1, “hGH Determination for Use to Guide Prevention of a Major Adverse Cardiac Event or a Cardiovascular Disease in a Subject” (Sphingotec GmbH, priority 2014, published 2017)

Tests used:
Assay type in all cases: in vivo, human
[1] = test system: subjects with plaque in the right carotid artery but no symptoms of carotid artery disease; experiment: BCAPS: carotid ultrasound intima media thickness (IMT); conditions: 36 months; for IMTbulb, median: maximum IMT at the carotid bifurcation; for IMTcca, median: mean IMT in the common carotid artery
Source text: The β-Blocker Cholesterol-Lowering Asymptomatic Plaque Study (BCAPS) was a randomized, double blind, placebo-controlled, single-center clinical trial that took place between 1994 and 1999. A detailed description of BCAPS can be found in the original paper (Hedblad et al. 2001. Circulation 103: 1721-1726), following here is a brief summary. The original study population consisted of 361 men and 432 women (total n=793) 49 to 70 years of age recruited from MDC-CC. Subjects included in BCAPS had plaque in the right carotid artery but no symptoms of carotid artery disease. Exclusion criteria were: myocardial infarction, angina pectoris or stroke within the previous 3 months; previous surgery in the right carotid artery; regular use of β-blockers or statins; blood pressure >160 (systolic) or >95 (diastolic) mm Hg; total cholesterol >8.0 mmol/l; hyperglycemia suspected to require insulin treatment; and conditions that in the view of the investigator made the participant unsuitable for the trial. The study consisted of 4 different treatment groups and the participants were randomized to 1 of the following: placebo/placebo, metoprolol CR/XL (25 mg once daily)/placebo, fluvastatin (40 mg once daily)/placebo or metoprolol CR/XL (25 mg once daily)/fluvastatin (40 mg once daily). Carotid ultrasound was performed at baseline, 18 and 36 months (Hedblad et al. 2001. Circulation 103: 1721-1726). In brief, a predefined extent of the right carotid bifurcation was scanned for presence of plaques and the maximum IMT at the bifurcation (IMTbulb) and the mean IMT in the common carotid artery ([…]) was measured.

[2] = test system: subjects with plaque in the right carotid artery but no symptoms of carotid artery disease; experiment: BCAPS: fasting plasma hs-GH under treatment; conditions: for Growth Hormone - females, geometric mean / Growth Hormone - males, geometric mean: 12 months of treatment, fasting plasma
Source text: The β-Blocker Cholesterol-Lowering Asymptomatic Plaque Study (BCAPS) was a randomized, double blind, placebo-controlled, single-center clinical trial that took place between 1994 and 1999. A detailed description of BCAPS can be found in the original paper (Hedblad et al. 2001. Circulation 103: 1721-1726), following here is a brief summary. The original study population consisted of 361 men and 432 women (total n=793) 49 to 70 years of age recruited from MDC-CC. Subjects included in BCAPS had plaque in the right carotid artery but no symptoms of carotid artery disease. Exclusion criteria were: myocardial infarction, angina pectoris or stroke within the previous 3 months; previous surgery in the right carotid artery; regular use of β-blockers or statins; blood pressure >160 (systolic) or >95 (diastolic) mm Hg; total cholesterol >8.0 mmol/l; hyperglycemia suspected to require insulin treatment; and conditions that in the view of the investigator made the participant unsuitable for the trial. The study consisted of 4 different treatment groups and the participants were randomized to 1 of the following: placebo/placebo, metoprolol CR/XL (25 mg once daily)/placebo, fluvastatin (40 mg once daily)/placebo or metoprolol CR/XL (25 mg once daily)/fluvastatin (40 mg once daily). The treatment period was 36-months. Fasting blood samples were drawn at baseline and at 12, 24 and 36 months. HDL-C, total cholesterol and TG were measured according to standard procedures at the Department of Clinical Chemistry, University Hospital of Malmö. LDL-C levels were calculated according to the Friedewald formula. GH levels were measured in stored fasting plasma samples, which were frozen immediately to −80° C. at the different examinations. A number of the samples stored in the freezer were missing or had insufficient plasma for the analysis of hs-GH. Subjects in which either the baseline-value of GH or the 12-month value of GH was missing were excluded from further analysis. After this adjustment the study consisted of 472 individuals. All samples were measured using the hs-hGH immunoassay as described above. In the analyses where treatment groups are compared, the groups are either the 4 randomization groups or they are divided in to 2 groups which are fluvastatin vs non-fluvastatin (i.e placebo) or metoprolol vs non-metoprolol. Since fasting hs-GH is known to differ between men and women all models were performed separate for men and women as well as combined. All models were adjusted for age, sex (if not already gender separated) and the natural logarithm of the fasting level of hs-GH at baseline. To investigate if fasting hs-GH was affected by treatment with fluvastatin or metoprolol we performed multiple regression analysis with ΔGH (baseline value subtracted from 12 month value) as the dependent variable and the treatment groups as independent variables.

[3] = test system: subjects with plaque in the right carotid artery but no symptoms of carotid artery disease; experiment: BCAPS: LDL-C under treatment; conditions: 12 months of treatment
Source text: The β-Blocker Cholesterol-Lowering Asymptomatic Plaque Study (BCAPS) was a randomized, double blind, placebo-controlled, single-center clinical trial that took place between 1994 and 1999. A detailed description of BCAPS can be found in the original paper (Hedblad et al. 2001. Circulation 103: 1721-1726), following here is a brief summary. The original study population consisted of 361 men and 432 women (total n=793) 49 to 70 years of age recruited from MDC-CC. Subjects included in BCAPS had plaque in the right carotid artery but no symptoms of carotid artery disease. […] HDL-C, total cholesterol and TG were measured according to standard procedures at the Department of Clinical Chemistry, University Hospital of Malmö. LDL-C levels were calculated according to the Friedewald formula. GH levels were measured in stored fasting plasma samples, which were frozen immediately to −80° C. at the different examinations. […] All samples were measured using the hs-hGH immunoassay as described above.

[4] = test system: patients with acute myocardial infarction; experiment: AMI cohort: Cox regression and Kaplan-Meier analysis for MACE at 2 years post-AMI
Description: We studied 953 STEMI and NSTEMI patients admitted to University Hospitals of Leicester NHS trust between August 2004 and April 2007. This observational cohort study complied with the Declaration of Helsinki and was approved by the local ethics committee; written informed consent was obtained from patients. […] Patients with known malignancy, renal replacement therapy or surgery in the previous month were excluded. Estimated glomerular filtration rate (eGFR) was calculated from the simplified Modification of Diet in Renal Disease formula (Smilde T D, van Veldhuisen D J, Navis G, Voors A A, Hillege H L. Drawbacks and prognostic value of formulas estimating renal function in patients with chronic heart failure and systolic dysfunction. Circulation 2006; 114:1572-80). All patients received standard medical treatment and revascularisation was at the discretion of the attending physician.
Plasma samples: Blood samples (anticoagulated with EDTA and aprotinin) were drawn after 15 minutes bed rest, immediately after diagnosis and within 36 h of symptom onset. Plasma was stored at −80° C. until assayed in a single batch for blinded determination of plasma hGH.
During follow-up over 2 years, there were 281 MACE, the primary composite endpoint (comprising 117 deaths, 71 HF hospitalisations and 93 re-AMIs). […]

[5] = FEMALE, all receiving the drug vs individuals not receiving it
[6] = FEMALE, model All groups, each compared against placebo
[7] = MALE, all receiving the drug vs individuals not receiving it
[8] = MALE, model All groups, each compared against placebo
[9] = gender ALL, all receiving the drug vs individuals not receiving it
[10] = gender ALL, model All groups, each compared against placebo

Structure (SMILES)	IMTbulb, median [1]	IMTcca, median [1]	Growth Hormone - females, geometric mean [2] [pg/mL]	Growth Hormone - males, geometric mean [2] [pg/mL]	B, multiple linear regression of ΔGH (12 months - baseline) vs treatment group [2, 5]	B, multiple linear regression of ΔGH (12 months - baseline) vs treatment group [2, 6]	B, multiple linear regression of ΔGH (12 months - baseline) vs treatment group [2, 7]	B, multiple linear regression of ΔGH (12 months - baseline) vs treatment group [2, 8]	B, multiple linear regression of ΔGH (12 months - baseline) vs treatment group [2, 9]	B, multiple linear regression of ΔGH (12 months - baseline) vs treatment group [2, 10]	LDL-C, mean [3] [mmol/L]	Univariable HR (95% CI) for MACE [4]
CC(C)n1c(/C=C/C(O)CC(O)CC(=O)O)c(-c2ccc(F)cc2)c2ccccc21 (centres unmarked) [Fluvastatin]	2.02	0.87	810	160	0.41	0.02	−0.37	−0.36	0.12	−0.11	3.27	–
COCCc1ccc(OCC(O)CNC(C)C)cc1 (centres unmarked) [Metoprolol]	1.89	0.90	860	170	0.33	−0.06	−0.27	−0.26	0.13	−0.11	4.17	–
CC(=O)Oc1ccccc1C(=O)O [Aspirin]	–	–	–	–	–	–	–	–	–	–	–	0.54 (0.41-0.72)
